The results in this text go back to the supplement of paper PMC4862054.

Several values for one entry are separate records, joined by “and”; a condition that tells them apart may be missing. Identical values can stand only once.

Holding throughout (assay): normalised viability (% of control), CellTiter-Blue; higher = more viable cells (about 100 = DMSO control)
Details in all cases: incubation time: 72 h

One experiment concerns CAL-148. The procedure:
(§1)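 DSRT, CellTiter-Blue viability, 72 h incubation. Signal is normalised to DMSO and benzethonium chloride controls. Value is the normalised response at dose 6.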

In a further experiment the test system is CAL-51. The procedure:
as §1

The next experiment deals with CAL-85-1. The procedure:
as §1

The test system of the next experiment is DU-4475. The procedure: as §1
In another experiment the test system is HDQ-P1. The procedure:
as §1

The test system of another experiment is MDA-MB-453. The procedure:
as §1

On to `C[C@]1(O)C[C@@H](c2nc(-c3ccc4ccc(-c5ccccc5)nc4c3)c3c(N)nccn32)C1` [OSI-906] (300 nM), for which the normalised viability stood at 89.2% with CAL-148; 91.5% with CAL-51; 87.2% in the experiment on CAL-85-1; 91.5% with DU-4475; 49.8% in the experiment on HDQ-P1; 87% in the experiment with MDA-MB-453.
In the case of `CC(=O)O[C@@]12CO[C@@H]1C[C@H](O)[C@@]1(C)C(=O)[C@H](O)C3=C(C)[C@@H](OC(=O)[C@H](O)[C@@H](NC(=O)OC(C)(C)C)c4ccccc4)C[C@@](O)([C@@H](OC(=O)c4ccccc4)[C@H]21)C3(C)C` [Docetaxel] (30 nM), the normalised viability in the experiment with CAL-148 was 18.9% and 14.9%; in the experiment on CAL-51, 25.8% and 20.6%; in the experiment with CAL-85-1, 30.6% and 27.1%; in the experiment with DU-4475, 19.6% and 16.1%; in the experiment with HDQ-P1, 23.5% and 31.8%; with MDA-MB-453, 27.2% and 26.1%.
As for `Nc1nc2[nH]cnc2c(=S)[nH]1` [Thioguanine] (300 nM), the normalised viability with CAL-148 came out at 99%; in the experiment on CAL-51 it was 102%; with CAL-85-1 it was 93.3%; in the experiment with DU-4475, 100%; with HDQ-P1 it was 75.6%; in the experiment with MDA-MB-453, 107%.
For `O=NN(CCCl)C(=O)NCCCl` [Carmustine] (300 nM), the normalised viability with CAL-148 amounted to 101%; with CAL-51 it was 108%; with CAL-85-1 it was 94.2%; with DU-4475 it was 77.4%; with HDQ-P1, 79.4%; in the experiment on MDA-MB-453, 110%.
As to `CC1(C)CNc2cc(NC(=O)c3cccnc3NCc3ccncc3)ccc21` [Motesanib] (300 nM), the normalised viability came out at 98.8% with CAL-148; 103% in the experiment with CAL-51; 78.1% with CAL-85-1; 95.9% in the experiment with DU-4475; 62.8% in the experiment on HDQ-P1; 86.5% in the experiment on MDA-MB-453.
`O=C1CN2Cc3c(ccc(Cl)c3Cl)N=C2N1` [Anagrelide] (300 nM): the normalised viability in the experiment with CAL-148 was determined as 107%; in the experiment with CAL-51, 77.6%; in the experiment on CAL-85-1, 94.4%; in the experiment on DU-4475 it was 94.7%; in the experiment with HDQ-P1 it was 80.3%; with MDA-MB-453, 111%.
On to `CC[C@@H]1C(=O)OC[C@@H]1Cc1cncn1C` [Pilocarpine] (1200 nM), for which the normalised viability in the experiment on CAL-148 came to 101%; with CAL-51 it was 97.6%; in the experiment on CAL-85-1, 100%; with DU-4475 it was 88.2%; in the experiment on HDQ-P1 it was 113%; in the experiment on MDA-MB-453, 105%.
Take `Cn1cnc2c(F)c(Nc3ccc(Br)cc3Cl)c(C(=O)NOCCO)cc21` [Selumetinib] (300 nM): the normalised viability in the experiment with CAL-148 was determined as 89.6%; with CAL-51 it was 95.1%; in the experiment with CAL-85-1, 83.4%; in the experiment with DU-4475, 7.86%; with HDQ-P1, 41.9%; in the experiment on MDA-MB-453 it was 121%.
Take `Cc1sc2c(c1C)C(c1ccc(Cl)cc1)=N[C@@H](CC(=O)OC(C)(C)C)c1nnc(C)n1-2` [(+)JQ1] (300 nM): the normalised viability turned out to be 73.8% in the experiment with CAL-148; 98.1% with CAL-51; 64.2% in the experiment on CAL-85-1; 57.6% in the experiment with DU-4475; 62.9% in the experiment with HDQ-P1; 34.8% with MDA-MB-453.
With `Oc1ncnc2[nH]ncc12` [Allopurinol] (300 nM), the normalised viability was determined as 113% in the experiment on CAL-148; 93.3% with CAL-51; 104% in the experiment on CAL-85-1; 91.6% in the experiment on DU-4475; 73.6% in the experiment with HDQ-P1; 101% in the experiment with MDA-MB-453.
Regarding `CC(C)(C)c1cnc(CSc2cnc(NC(=O)C3CCNCC3)s2)o1` [SNS-032] (300 nM), the normalised viability was found to be 7.44% with CAL-148; 74% in the experiment on CAL-51; 9.41% in the experiment with CAL-85-1; 27.9% with DU-4475; 10.2% in the experiment with HDQ-P1; 18.9% in the experiment on MDA-MB-453.
With `Cn1cc(C2=Nc3cc(NC(=O)C(N)C4CCCCC4)cc4c3C2=CNNC4=O)cn1` (centres undefined) (300 nM), the normalised viability with CAL-148 came out at 84%; with CAL-51, 93.9%; in the experiment with CAL-85-1, 66.1%; in the experiment on DU-4475 it was 84.3%; in the experiment on HDQ-P1, 58.7%; in the experiment with MDA-MB-453, 34.9%.
Regarding `COc1cc(F)c(F)c(Nc2ccc(I)cc2F)c1NS(=O)(=O)C1(C[C@H](O)CO)CC1` [RDEA119] (300 nM), the normalised viability in the experiment with CAL-148 is 82.6%; in the experiment with CAL-51 it was 74.9%; with CAL-85-1 it was 72.8%; in the experiment with DU-4475 it was 1.76%; with HDQ-P1, 58.7%; with MDA-MB-453, 80.8%.
Regarding `O=P(O)(O)C(O)(Cn1ccnc1)P(=O)(O)O` [Zoledronic acid] (300 nM), the normalised viability with CAL-148 came to 93.6%; with CAL-51, 104%; in the experiment on CAL-85-1, 98.4%; with DU-4475, 115%; in the experiment with HDQ-P1, 68.9%; in the experiment on MDA-MB-453 it was 93.7%.
Regarding `COc1cc2c(cc1O)CC[C@@H]1[C@@H]2CC[C@]2(C)[C@@H](O)CC[C@@H]12` [2-methoxyestradiol] (300 nM), the normalised viability in the experiment on CAL-148 was determined as 97%; in the experiment on CAL-51, 110%; in the experiment on CAL-85-1, 99%; with DU-4475 it was 90.8%; in the experiment with HDQ-P1, 72.2%; with MDA-MB-453 it was 81.3%.
Regarding `CC(=O)c1c(C)c2cnc(Nc3ccc(N4CCNCC4)cn3)nc2n(C2CCCC2)c1=O` (300 nM), the normalised viability was 102% in the experiment on CAL-148; 81.1% in the experiment with CAL-51; 89.8% with CAL-85-1; 102% with DU-4475; 52.7% with HDQ-P1; 74.3% in the experiment on MDA-MB-453.
On to `Nc1ncn([C@@H]2O[C@H](CO)[C@@H](O)[C@H]2O)c(=O)n1` [Azacitidine] (300 nM), for which the normalised viability in the experiment on CAL-148 was 95.3%; with CAL-51 it was 104%; with CAL-85-1 it was 93.1%; with DU-4475 it was 90%; with HDQ-P1, 84.5%; in the experiment with MDA-MB-453, 91.9%.
For `CC1=C2C[C@H]3[C@@H](CC=C4C[C@@H](O)CC[C@@]43C)[C@@H]2CC[C@]12O[C@@H]1C[C@H](C)CN[C@H]1[C@H]2C` [Cyclopamine] (300 nM), the normalised viability with CAL-148 came out at 115%; in the experiment on CAL-51, 115%; in the experiment on CAL-85-1 it was 106%; in the experiment on DU-4475 it was 105%; in the experiment on HDQ-P1, 79.2%; with MDA-MB-453 it was 113%.
As for `C[C@]12CC[C@@H]3c4ccc(OC(=O)N(CCCl)CCCl)cc4CC[C@H]3[C@@H]1CC[C@@H]2O` [Estramustine] (29.7 nM), the normalised viability came out at 116% in the experiment with CAL-148; 79.1% in the experiment on CAL-51; 97.2% in the experiment with CAL-85-1; 71.4% in the experiment on DU-4475; 95.3% in the experiment on HDQ-P1; 97.2% in the experiment with MDA-MB-453.
